From patent US20180252736A1, “CB2 RECEPTOR INTERNALIZATION” (Arena Pharmaceuticals, Inc., priority 2015, published 2018)
Entries after “also recorded” stand apart in the source; their conditions may differ.

Key:
[1] = system: MIA-induced osteoarthritis in male Sprague Dawley rats; assay: Osteoarthritis pain model (MIA); type: in vivo, rat; conditions: for in vivo efficacy over time in the osteoarthritis pain model: oral dosing; for time following dosing at which in vivo efficacy was lost / time following dosing up to which in vivo efficacy was maintained / time of peak efficacy following dosing: osteoarthritis pain model
Text: Injection of monosodium iodoacetate (MIA) into a joint (J Rheumatol 14:130-1, 1987) inhibits the activity of glyceraldehyde-3-phosphate dehydrogenase in chondrocytes, resulting in disruption of glycolysis and eventually in cell death. The progressive loss of chondrocytes results in histological and morphological changes of the articular cartilage, closely resembling those seen in osteoarthritis patients.
Osteoarthritis was induced in 200 g male Sprague Dawley rats. After brief anesthesia by isoflurane, rats received a single intra-articular injection of MIA (2 mg) (Catalog #19148, Sigma Aldrich, Saint Louis, Mo.) dissolved in 0.9% sterile saline in a 50 μL volume administered through the patella ligament into the joint space of the left knee with a 30 G needle. Following injection, animals were allowed to recover from anesthesia before being returned to the main housing vivarium.
Typically during disease progression, there is an inflammation period of 0-7 days post-intra-articular injection followed by progressive degeneration of the cartilage and subchondral bone from days 14-55. Efficacy studies with a compound described herein took place from day 14 onwards and were performed twice a week with at least three days of wash-out in between each assay. Three different assays can be used to measure pain. Tactile allodynia can be measured via von Frey assay, hind limb paw weight distribution can be monitored using an incapacitance tester (Columbus Instruments, Columbus, Ohio), and hind limb grip strength can be measured using a grip strength meter (Columbus Instruments, Columbus, Ohio). Briefly, the von Frey assay was performed using the standard up/down method with von Frey filaments. Hind paw weight distribution was determined by placing rats in a chamber so that each hind paw rested on a separate force plate of the incapacitance tester. The force exerted by each hind limb (measured in grams) was averaged over a three second period. Three measurements are taken for each rat, and the change in hind paw weight distribution was calculated. Peak hind limb grip force was conducted by recoding the maximum compressive force exerted on the hind limb mesh gauge set on the grip strength meter. During testing, each rat was restrained and the paw of the injected knee was allowed to grip the mesh. The animal was then pulled in an upward motion until their grip was broken. Each rat was tested three times, with the contralateral paw used as a control.
A baseline was established for animals prior to administration of compounds. The MIA-treated groups of rats were then dosed with either vehicle (PEG400, orally), test compound (at 3 mg/kg, 10 mg/kg, and 30 mg/kg, orally), or morphine (3 mg/kg, subcutaneously). The dosing volume was 500 μL. One hour after dosing, von Frey assay, hind limb weight distribution and/or hind limb grip analysis was performed to measure the efficacy of the test compounds.

[2] = Plasma concentration in the osteoarthritis pain model studies; type: in vivo, rat; conditions: for course of plasma concentration: during the pain model time course
rat CB2 receptor [3] = target: T1, rat CB2 receptor (Rattus norvegicus, UniProt Q9QZN9); assay: CB2 receptor internalization assay (conventional fluorescence microscopy); type: cell-based; design: expressed in transfected cells; conditions: for receptor internalization: FIG. 10 comparison; for receptor internalization efficacy relative to CP55,940, rat CB2: fluorescence microscopy
T1 sequence (Q9QZN9 1-360): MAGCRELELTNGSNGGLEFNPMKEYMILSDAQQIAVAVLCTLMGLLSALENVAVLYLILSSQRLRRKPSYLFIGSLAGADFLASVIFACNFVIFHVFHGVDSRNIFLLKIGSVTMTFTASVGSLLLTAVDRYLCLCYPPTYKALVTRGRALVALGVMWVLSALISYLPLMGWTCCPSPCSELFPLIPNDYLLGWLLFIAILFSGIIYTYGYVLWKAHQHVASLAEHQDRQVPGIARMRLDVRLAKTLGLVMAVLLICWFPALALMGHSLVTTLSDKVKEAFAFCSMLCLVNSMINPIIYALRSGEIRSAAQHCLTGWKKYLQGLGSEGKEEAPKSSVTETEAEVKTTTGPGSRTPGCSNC
Method: (§1) Receptor internalization assays for the CB2 receptor were performed using a high content imaging system (e.g., IN Cell Analyzer, GE Healthcare Life Sciences, Pittsburgh, Pa.), or by conventional fluorescence microscopy with accessory image analysis software.
[…]. On the day of the assay, growth media was removed from the cell plate and replaced with 25 μL pre-warmed RPMI media. Additionally, 25 μL of pre-warmed RPMI media containing a fluorescent nuclear stain (Hoescht 33342 dye (1:500 dilution); Catalog #H-1399, Invitrogen,) and fluorophore-labeled antibody (Alexa-488 anti-HA monoclonal antibody (1:50 dilution); Catalog #A-21287, Invitrogen, Waltham, Mass.) was added to the cell plate. Test compounds or CP55,940 dissolved in DMSO were serially diluted in DMSO and then further diluted in RPMI to achieve 3× concentrations in 0.5% DMSO. Aliquots (25 μL) of diluted test compounds were added to assay plates, which were then incubated in a water bath at 37° C. for 1 hour. Compound containing media was removed at the end of the treatment period by inversion of the plate. The assay plate was washed twice with PBS (150 μL/well) and the cells were then fixed with 2% formaldehyde/PBS solution for 10 minutes at room temperature. Fluorescence microscopy images were captured for each well on the plate (minimum of 6 per well). The internalization of anti-HA antibody-labeled CB2 receptors results in redistribution of fluorescence from the cell surface to intracellular endosomes, which appear as punctate fluorescent granules within the cell. Quantification of receptor internalization was performed by measuring the Alexa-488 anti-HA monoclonal antibody-stained intracellular granule fluorescence intensities normalized per cell number in each well. Dose-response curves were generated using a minimum of 8 different test concentrations and triplicate determinations were made at each test concentration. Assay performance was monitored by inclusion of a standard CB2 reference agonist such as CP55,940 and agonist internalization efficacies were reported relative to that of the reference agonist.

human CB2 receptors = assay: as above; type: cell-based
Method: as §1
[…]. On the day of the assay, growth media was removed from the cell plate and replaced with 25 μL pre-warmed RPMI media. Additionally, 25 μL of pre-warmed RPMI media containing a fluorescent nuclear stain (Hoescht 33342 dye (1:500 dilution); Catalog #H-1399, Invitrogen,) and fluorophore-labeled antibody (Alexa-488 anti-HA monoclonal antibody (1:50 dilution); Catalog #A-21287, Invitrogen, Waltham, Mass.) was added to the cell plate. Test compounds or CP55,940 dissolved in DMSO were serially diluted in DMSO and then further diluted in RPMI to achieve 3× concentrations in 0.5% DMSO. […] Fluorescence microscopy images were captured for each well on the plate (minimum of 6 per well). The internalization of anti-HA antibody-labeled CB2 receptors results in redistribution of fluorescence from the cell surface to intracellular endosomes, which appear as punctate fluorescent granules within the cell. Quantification of receptor internalization was performed by measuring the Alexa-488 anti-HA monoclonal antibody-stained intracellular granule fluorescence intensities normalized per cell number in each well. […]

hCB2 [4] = target: T2, hCB2 (Homo sapiens, UniProt P34972); assay: β-arrestin recruitment assay (PathHunter CHO-K1); type: cell-based; design: host or cells: PathHunter CHO-K1; conditions: relative to CP55,940
T2 sequence (P34972 whole entry): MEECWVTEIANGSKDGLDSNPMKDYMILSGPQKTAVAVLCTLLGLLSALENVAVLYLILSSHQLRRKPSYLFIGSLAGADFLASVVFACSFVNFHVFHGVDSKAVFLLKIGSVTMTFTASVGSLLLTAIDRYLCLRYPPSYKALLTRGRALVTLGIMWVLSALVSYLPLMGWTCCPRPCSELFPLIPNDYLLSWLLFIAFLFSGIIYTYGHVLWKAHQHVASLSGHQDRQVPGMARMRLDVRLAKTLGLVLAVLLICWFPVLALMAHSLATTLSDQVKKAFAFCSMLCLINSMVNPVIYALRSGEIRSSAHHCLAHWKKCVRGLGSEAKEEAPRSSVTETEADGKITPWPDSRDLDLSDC

rat CB2 receptor [5] = target: T1, rat CB2 receptor; assay: β-arrestin recruitment assay (PathHunter CHO-K1); type: cell-based; design: host or cells: PathHunter CHO-K1; conditions: relative to CP55,940
hCB2 [6] = target: T2, hCB2; conditions: cited from earlier work
CB1 = CB1 (Homo sapiens, UniProt P21554); conditions: read-out: potency in GTP-γS binding assays, CB1 receptor; cited from earlier work
Chain of CB1 (P21554 whole entry): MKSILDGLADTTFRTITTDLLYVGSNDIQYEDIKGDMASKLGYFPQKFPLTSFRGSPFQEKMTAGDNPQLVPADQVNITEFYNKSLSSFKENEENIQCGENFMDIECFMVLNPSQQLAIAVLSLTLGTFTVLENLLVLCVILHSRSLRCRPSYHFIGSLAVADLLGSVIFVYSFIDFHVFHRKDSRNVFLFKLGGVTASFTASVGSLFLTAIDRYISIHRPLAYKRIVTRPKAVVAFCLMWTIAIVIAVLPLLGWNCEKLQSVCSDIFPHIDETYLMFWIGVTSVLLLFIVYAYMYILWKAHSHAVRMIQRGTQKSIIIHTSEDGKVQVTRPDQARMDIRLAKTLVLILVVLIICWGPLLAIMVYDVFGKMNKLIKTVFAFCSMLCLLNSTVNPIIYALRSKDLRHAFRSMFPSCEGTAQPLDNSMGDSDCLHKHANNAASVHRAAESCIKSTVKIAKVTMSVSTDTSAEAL

[7] = system: CB2 receptor over CB1 receptor; conditions: Eur. Urol. 2010 FIG. 2a; cited from earlier work

| Compound | in vivo efficacy over time in the osteoarthritis pain model [1] | time following dosing up to which in vivo efficacy was maintained [1] | course of plasma concentration [2] | receptor internalization efficacy relative to CP55,940, rat CB2 (rat CB2 receptor [3]) [%] | other results |
| --- | --- | --- | --- | --- | --- |
| O=C(N[C@H](CO)C1CCOCC1)c1nn(-c2c[n+]([O-])ccn2)c2c1C[C@H]1C[C@@H]21 [Compound 841] | sustained in vivo efficacy | four | rapidly declining plasma concentrations; also recorded: decreasing plasma concentrations | 105 | time following dosing at which in vivo efficacy was lost [1]: six; concentration at 6 h ([2]; rat, plasma, oral, when efficacy was lost, read-out: plasma drug levels at the six hour timepoint): < 3 ng/mL; receptor internalization (rat CB2 receptor [3]): high receptor internalization |
| CC(C)(NC(=O)c1nn(-c2c[n+]([O-])ccn2)c2c1C[C@@H]1C[C@H]21)C(F)(F)F [Compound 919] | sustained in vivo efficacy | six | rapidly declining plasma concentrations; also recorded: decreasing plasma concentrations | 92 | receptor internalization efficacy relative to CP55,940, human CB2 (human CB2 receptors): 95% |
| CC(C)(CO)NC(=O)c1nn(-c2ccc(F)cc2F)c2c1C[C@H]1C[C@@H]21 [Compound 493] | rapid loss of in vivo efficacy | – | high plasma concentrations that did not decline significantly until four hours following dosing | 58 | time following dosing at which in vivo efficacy was lost [1]: two and four; receptor internalization (rat CB2 receptor [3]): low receptor internalization |
| CNC(=O)[C@@H](NC(=O)c1nn(-c2c[n+]([O-])ccn2)c2c1C[C@H]1C[C@@H]21)C(C)(C)C [Compound 704] | rapid loss of in vivo efficacy | – | increasing plasma concentrations | – | time of peak efficacy following dosing [1]: one; β-arrestin efficacy compared to CP55,940, human CB2 (hCB2 [4]): 106%; β-arrestin efficacy compared to CP55,940, rat CB2 (rat CB2 receptor [5]): 88% |
| O=C(NC1(C(F)(F)F)CCC1)c1nn(-c2c[n+]([O-])ccn2)c2c1C[C@@H]1C[C@H]21 [Compound 765] | sustained in vivo efficacy | six | decreasing plasma concentrations | 99 | receptor internalization efficacy relative to CP55,940, human CB2 (human CB2 receptors): 97% |
| CC(CO)(CO)NC(=O)c1nn(-c2cc(C#N)ccn2)c2c1C[C@H]1C[C@@H]21 [Compound 820] | rapid loss of in vivo efficacy | – | high plasma concentrations | – | time of peak efficacy following dosing [1]: one; β-arrestin efficacy compared to CP55,940, human CB2 (hCB2 [4]): 82%; β-arrestin efficacy compared to CP55,940, rat CB2 (rat CB2 receptor [5]): 56% |
| CCCCCCC(C)(C)c1cc(O)c(C2CC(=O)[C@H]3C[C@@H]2C3(C)C)c(OC(=O)/C=C/C(=O)O)c1 (some centres unmarked) [cannabinor] | – | – | – | – | agonist character at the CB2 receptor upon closer examination of the published data (hCB2 [6]; Eur. Urol. 2010 FIG. 2b): only a partial agonist; agonist character at the human CB2 receptor as the publication suggests (hCB2 [6]): full agonist; selectivity for the CB2 receptor over the CB1 receptor (GTP-γS) (hCB2 [6]): 321 fold; EC50 (hCB2 [6]; read-out: potency in GTP-γS binding assays, CB2 receptor): 17.4 nM; EC50 (CB1): 5590 nM; selectivity measured in radioligand binding assays [7]: approximately 10 fold |
